The subject of this assay is HepaRG. Put plainly: LDH release cytotoxicity, % of total lysis control; higher = more cytotoxic. The following applies: 48 h. Put shortly:
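Percent cytotoxicity was scaled between on-plate vehicle and total lysis controls, then averaged over duplicate wells. The cells were single-lot HepaRG on collagen I-coated 96-well plates, exposed for 48 h to eight-point half-log test chemical series topping at 100 µM in serum-free induction medium with 0.5% DMSO. Total lysis wells got 0.1% Triton X, and LDH in 50 µL spent medium was read as resorufin fluorescence (CytoTox-ONE, Tecan Safire).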
(Release of lactate dehydrogenase indicates damage to the cell membrane.)

± gives the standard deviation of the averaged measurements.

For the compound `Clc1ccc(C(Cl)(Cl)Cl)cc1` [4-Chlorobenzotrichloride], the LDH release cytotoxicity is -1.85 ± 0.71% (0.03162 µM); -1.72 ± 0.36% (0.1 µM); -2.4 ± 0.4% (0.3162278 µM); -1.68 ± 1.3% (1 µM); -1.91 ± 0.86% (3.16228 µM); -1.134 ± 0.011% (10 µM). In addition, the LDH release cytotoxicity reads like this: (31.6228 µM) -0.341 ± 0.31%; (100 µM) 27.7 ± 9.1%.

For the compound `CCOP(=O)(SC(C)CC)N1CCSC1=O` (stereo unspecified) [Fosthiazate], the LDH release cytotoxicity runs as follows: (0.03162 µM) -0.419 ± 0.44%; (0.1 µM) -0.335 ± 0.79%; (0.3162278 µM) -0.582 ± 0.46%; (1 µM) -0.0276 ± 1%; (3.16228 µM) -0.262 ± 0.11%; (10 µM) -0.389 ± 0.35%. For the same compound, the LDH release cytotoxicity (31.6228 µM) is -0.432 ± 0.8% and the LDH release cytotoxicity (100 µM) was 0.843 ± 0.36%.

Take `CN1CC=NC1=S` [Methimazole]: the LDH release cytotoxicity is -0.734% (0.03162 µM); -1.69 ± 0.39% (0.1 µM); -2.04 ± 0.31% (0.3162278 µM); -2.56 ± 0.11% (1 µM); -1.77 ± 0.33% (3.16228 µM); -1.81 ± 0.21% (10 µM). The LDH release cytotoxicity reads like this: (31.6228 µM) -1.83 ± 0.38%; (100 µM) -0.15 ± 0.28%.

As to `CCOCCOC(C)=O` [Ethylene glycol monoethyl ether acetate], the LDH release cytotoxicity was -1.19 ± 0.03% (0.03162 µM); -0.486 ± 0.16% (0.1 µM); 0.156 ± 1.3% (0.3162278 µM); 0.488 ± 0.7% (1 µM); 0.0494 ± 0.028% (3.16228 µM); 0.917 ± 0.22% (10 µM). Further, the LDH release cytotoxicity (31.6228 µM) stood at 0.221 ± 0.35% and the LDH release cytotoxicity (100 µM) came to 1.51 ± 0.72%.

With `C=CC(=O)OCCCCCC(C)C` [Isooctyl acrylate], the LDH release cytotoxicity is, setting by setting: (0.03162 µM) -1 ± 0.16%; (0.1 µM) -1.54 ± 0.15%; (0.3162278 µM) -2.08 ± 0.28%; (1 µM) -1.07 ± 0.63%; (3.16228 µM) -1.61 ± 0.64%; (10 µM) -1.55 ± 0.55%. Also, the LDH release cytotoxicity is -0.382 ± 0.33% (31.6228 µM) and 0.567 ± 1.4% (100 µM).

As to `CCCCCCCCCCCCc1ccc(S(=O)(=O)O)cc1` [Dodecylbenzenesulfonic acid], the LDH release cytotoxicity by setting is: (0.031623 µM) -1.05 ± 0.58%; (0.1 µM) -1.4 ± 1.3%; (0.316228 µM) -2.17 ± 0.79%; (1 µM) -3.27 ± 1.6%; (3.16228 µM) -2.52 ± 0.99%; (10 µM) -2.56 ± 0.4%. Besides, the LDH release cytotoxicity was -1.64 ± 0.34% (31.6228 µM) and 65.65 ± 0.34% (100 µM).

As to `COP(=S)(OC)Oc1ccc([N+](=O)[O-])c(C)c1` [Fenitrothion], the LDH release cytotoxicity by setting is: (0.03162 µM) -1.98 ± 1.1%; (0.1 µM) -2.13 ± 1.2%; (0.3162278 µM) -0.603 ± 0.67%; (1 µM) -1.11 ± 0.74%; (3.16228 µM) -0.939 ± 0.39%; (10 µM) -0.576 ± 0.69%. In addition, the LDH release cytotoxicity (31.6228 µM) is -0.104 ± 0.3% and the LDH release cytotoxicity (100 µM) came out at 0.45 ± 0.39%.

With `O=C(O)CC(O)C(=O)O` (stereo unspecified) [Malic acid], the LDH release cytotoxicity by setting is: (0.03162 µM) -1.2 ± 0.52%; (0.1 µM) -1.77 ± 0.018%; (0.3162278 µM) -1.39 ± 0.22%; (1 µM) -1.28 ± 1.3%; (3.16228 µM) -1.27 ± 0.26%; (10 µM) -1.41 ± 0.57%. Moreover, the LDH release cytotoxicity reads like this: (31.6228 µM) -1.33 ± 0.1%; (100 µM) 0.326 ± 0.19%.

Consider `CCc1cccc(CC)c1N(COC)C(=O)CCl` [Alachlor], for which the LDH release cytotoxicity reads like this: (0.031623 µM) -1.16 ± 0.26%; (0.1 µM) -1.83 ± 1.3%; (0.316228 µM) -2.33 ± 2.1%; (1 µM) -2.4 ± 0.71%; (3.16228 µM) -2.62 ± 0.18%; (10 µM) -2.23 ± 0.35%. Moreover, the LDH release cytotoxicity (31.6228 µM) was -2.51 ± 0.88% and the LDH release cytotoxicity (100 µM) was -0.425 ± 0.47%.

With `CC(O)CCO` (stereo unspecified) [1,3-Butanediol], the LDH release cytotoxicity (0.03162 µM) was -2.25 ± 1.4%; the LDH release cytotoxicity (0.1 µM) is -2.15 ± 1.1%; the LDH release cytotoxicity (0.3162278 µM) is -2.36 ± 0.29%; the LDH release cytotoxicity (1 µM) is -2.52 ± 0.74%; the LDH release cytotoxicity (3.16228 µM) is -2.18 ± 0.92%; the LDH release cytotoxicity (10 µM) is -2.33 ± 0.35%. For the same compound, the LDH release cytotoxicity (31.6228 µM) was -1.67 ± 0.8% and the LDH release cytotoxicity (100 µM) was -0.781 ± 0.99%.

In the case of `CC(C)OC(=O)Nc1cccc(Cl)c1` [Chlorpropham], the LDH release cytotoxicity by setting is: (0.03162 µM) -1.82 ± 0.15%; (0.1 µM) -0.0252 ± 1.6%; (0.3162278 µM) -2.28 ± 0.48%; (1 µM) -2.1 ± 0.63%; (3.16228 µM) -1.45 ± 0.039%; (10 µM) -1.72 ± 0.48%. The LDH release cytotoxicity was -1.01 ± 0.056% (31.6228 µM) and 1.41 ± 0.48% (100 µM).

With `N#CC(CCc1ccc(Cl)cc1)(Cn1cncn1)c1ccccc1` (stereo unspecified) [Fenbuconazole], the LDH release cytotoxicity is -0.994 ± 0.62% (0.03162 µM); -0.764 ± 0.82% (0.1 µM); -0.539 ± 0.46% (0.3162278 µM); -0.261 ± 2.2% (1 µM); -0.9 ± 0.043% (3.16228 µM); -0.281 ± 0.28% (10 µM). For the same compound, the LDH release cytotoxicity stood at 5.08 ± 0.15% (31.6228 µM) and 31.3 ± 1.4% (100 µM).

Consider `CCNc1cccc(C)c1` [N-Ethyl-3-methylaniline], for which the LDH release cytotoxicity is -1.25 ± 0.2% (0.03162 µM); -0.734 ± 0.64% (0.1 µM); -1.13 ± 0.64% (0.3162278 µM); -0.866 ± 0.67% (1 µM); -0.912 ± 0.26% (3.16228 µM); -0.509 ± 0.35% (10 µM). Also, the LDH release cytotoxicity was -0.424 ± 0.49% (31.6228 µM) and 1.66 ± 0.53% (100 µM).

As for `C=CCCCCCCCCCCCC` [1-Tetradecene], the LDH release cytotoxicity was -1.3 ± 1.6% (0.031623 µM); -3.45 ± 0.87% (0.1 µM); -3.94 ± 1.4% (0.316228 µM); -4.65 ± 0.72% (1 µM); -3.81 ± 0.5% (3.16228 µM); -4.29 ± 0.17% (10 µM). In addition, the LDH release cytotoxicity (31.6228 µM) was -4.23 ± 0.41% and the LDH release cytotoxicity (100 µM) is -4.05 ± 0.7%.

Regarding `CCCCOC(=O)c1ccccc1` [Butyl benzoate], the LDH release cytotoxicity is, setting by setting: (0.03162 µM) -1.31 ± 0.5%; (0.1 µM) -1.78 ± 0.16%; (0.3162278 µM) -2.41 ± 0.59%; (1 µM) -1.63 ± 0.22%; (3.16228 µM) -1.96 ± 0.76%; (10 µM) -1.46 ± 0.092%. For the same compound, the LDH release cytotoxicity reads like this: (31.6228 µM) -1.03 ± 0.64%; (100 µM) 0.0897 ± 0.95%.

For `COc1cccc(C(=O)NN(C(=O)c2cc(C)cc(C)c2)C(C)(C)C)c1C` [Methoxyfenozide], the LDH release cytotoxicity is -1.25 ± 0.79% (0.03162 µM); -1.31 ± 0.37% (0.1 µM); -0.377 ± 0.4% (0.3162278 µM); -1.71 ± 0.41% (1 µM); -1.43 ± 0.52% (3.16228 µM); -0.152 ± 0.72% (10 µM). The LDH release cytotoxicity is, setting by setting: (31.6228 µM) 0.244 ± 0.32%; (100 µM) 3.13 ± 0.26%.

Turning to `CC[C@H](C)C1O[C@]2(C=C[C@@H]1C)C[C@@H]1C[C@@H](C/C=C(\C)[C@@H](O[C@H]3C[C@H](OC)[C@@H](O[C@H]4C[C@H](OC)[C@H](NC)[C@H](C)O4)[C@H](C)O3)[C@@H](C)/C=C/C=C3\CO[C@@H]4[C@H](O)C(C)=C[C@@H](C(=O)O1)[C@]34O)O2` (stereo partly specified) [Emamectin benzoate], the LDH release cytotoxicity runs as follows: (0.031623 µM) -1.83 ± 1%; (0.1 µM) -1.09 ± 0.55%; (0.316228 µM) -2.57 ± 0.26%; (1 µM) -3.84 ± 0.41%; (3.16228 µM) -2.51 ± 1.1%; (10 µM) 5.16 ± 1.4%. The LDH release cytotoxicity is 83.4 ± 1.7% (31.6228 µM) and 87 ± 4.4% (100 µM).

The values are drawn from the supplement of paper PMC7840683.
